Experiments:
[1] = test system: A2780 ovarian cancer cells; test: Proliferation assay (Alamar Blue); assay type: cell-based; details: Homo sapiens, 96 h, 4-day incubation, read-out: pIC50 (negative log value of the IC50-value) (converted)
Description: Cellular activity of the compounds of formula (I) was determined on A2780 tumour cells using a colorimetric assay for cell toxicity or survival (see example C.2).
The human A2780 ovarian cancer cells were a kind gift from Dr. T. C. Hamilton (Fox Chase Cancer Centre, Pennsylvania, U.S.A.). The cells were cultured in RPMI 1640 medium supplemented with 2 mM L-Glutamine, 50 μg/ml gentamicin and 10% fetal calf serum.
Resazurin was purchased from Aldrich (Prod. No. 199303). Potassium ferrocyanide, potassium ferricyanide, KH2PO4 and K2HPO4 were purchased from Sigma (Prod. Nos. P9387, P8131, P5655 and P8281, respectively).
Potassium Phosphate Buffer 0.1 M (PPB) was made as follows: 2.72 gram KH2PO4 and 13.86 gram K2HPO4 were dissolved in 500 ml milli-Q H2O, the pH was adjusted to pH 7.4 and the volume was brought to 1 liter with milli-Q H2O; the buffer was filter sterilised and stored at room temperature. Resazurin stock solution (PPB-A) was prepared fresh by dissolving 45 mg resazurin in 15 ml PBS. 30 mM potassium ferricyanide (PPB-B) was prepared by dissolving 0.987 gram potassium ferricyanide in 100 ml PPB. 30 mM potassium ferrocyanide (PPB-C) was prepared by dissolving 1.266 gram potassium ferrocyanide in 100 ml PPB.
Mixture of PPB-A, PPB-B and PPB-C was prepared by mixing equal volumes of the respective solutions. Resazurin work solution (herein termed “Alamar Blue” solution) was prepared by diluting said mixture 20× (vol/vol) in PPB and filter sterilising; the Alamar Blue solution could be kept at 4° C. for a maximum of 2 weeks.
For experiments in 384 wells plates the cells were seeded at a density of 5×10^3 cells/ml in Falcon 384-well culture plates (Life Technologies, Merelbeke, Belgium), black with clear bottom, in 45 μl culture medium. Cells were allowed to adhere to plastic for 24 hr. The tested compound was pre-diluted (1/50 in culture medium) and 5 μl pre-diluted compound was added to the wells. Following 4-day incubation, 10 μl of the Alamar Blue solution was added to each well and the cells were further incubated for 5 hrs (A2780) at 37° C. The fluorescence intensity was measured for each well with a Fluorescence plate reader (Fluorskan, Labsystems, 540 nm excitation and 590 nm emission)
The antiproliferative activity was calculated as percentage of remaining viable cells in treated versus control (untreated cells) conditions. Within an experiment, the result for each experimental condition is the mean of 3 replicate wells. When appropriate, the experiments were repeated to establish full concentration-response curves. When appropriate, IC50-values (concentration of the drug, needed to reduce cell growth to 50% of the control) were computed using probit analysis for graded data (Finney, D. J., Probit Analyses, 2nd Ed. Chapter 10, Graded Responses, Cambridge University Press, Cambridge 1962). Herein the effects of test compounds are expressed as pIC50 (the negative log value of the IC50-value) (see Table 4).

p53 in A2780 cells = test: p53 ELISA (preservation of p53 in A2780 cells); assay type: cell-based; details: Homo sapiens, treated with compound for 16 hours, read-out: p53-elisa LAD (lowest dose giving at least 140% of the value for p53 present in the control)
Description: The capacity of the compounds to preserve p53 in A2780 cells was measured with the p53 enzyme linked immunosorbent assay (ELISA). The p53 assay is a “sandwich” enzyme immunoassay employing two polyclonal antibodies. A polyclonal antibody, specific for the p53 protein, has been immobilized onto the surface of the plastic wells. Any p53 present in the sample to be assayed will bind to the capture antibody. The biotinylated detector polyclonal antibody also recognizes p53 protein, and will bind to any p53, which has been retained by the capture antibody. The detector antibody, in turn, is bound by horseradish peroxidase-conjugated streptavidin. The horseradish peroxidase catalyses the conversion of the chromogenic substrate o-phenylene diamine, the intensity of which is proportional to the amount of p53 protein bound to the plate. The coloured reaction product is quantified using a spectrophotometer. Quantitation is achieved by the construction of a standard curve using known concentrations of purified recombinant HIS tagged p53 protein (see example C.1).
A2780 cells (ATCC) were cultivated in RPMI 1640 supplemented with 10% fetal calf serum (FCS), 2 mM L-glutamine and gentamycin at 37° C. in a humidified incubator with 5% CO2.
A2780 cells were seeded at 20.000 cells per well in a 96 well plate, cultured for 24 hours and treated with compound for 16 hours at 37° C. in a humidified incubator. After incubation, the cells were washed once with phosphate-buffered saline and 30 μl, per well, low salt RIPA buffer (20 mM tris, pH7.0, 0.5 mM EDTA, 1% Nonidet P40, 0.5% DOC, 0.05% SDS, 1 mM PMSF, 1 μg/ml aprotinin and 0.5 μ/ml leupeptin) was added. Plates were placed on ice for 30 minutes to complete the lysis. p53 protein was detected in de lysates by using the sandwich ELISA, described below.
High binding polystyrene EIA/RIA 96 well plates (Costar 9018) were coated with the capture antibody pAb1801 (Abcam ab28-100) at a concentration of 1 μg/ml in coating buffer (0.1 M NaHCO3 pH8.2), 50 μl per well. The antibody was allowed to adhere overnight at 4° C. Coated plates were washed once with phosphate-buffered saline (PBS)/0.05% Tween 20 and 300 μl of blocking buffer (PBS, 1% bovine serum albumins (BSA)) was added, for an incubation period of 2 hours at room temperature. Dilutions of purified recombinant HIS tagged p53 protein, ranging from 3-200 ng/ml, were made in blocking buffer and used as standards.
Plates were washed twice with PBS/0.05% Tween 20 and blocking buffer or standards were added at 80 μl/well. To the standards, 20 μl of lysis buffer was added. The samples were added to the other wells at 20 μl lysate/well. After an overnight incubation at 4° C., plates were washed twice with PBS/0.05% Tween 20. Aliquots of 100 μl secondary polyclonal antibody p53(FL-393) (Tebubio, sc-6243) at a concentration of 1 μg/ml in blocking buffer were added to each well and allowed to adhere for 2 hours at room temperature. Plates were washed three times with PBS/0.05% Tween 20. Detection antibody anti-rabbit HRP (sc-2004, Tebubio) at 0.04 μg/ml in PBS/1% BSA was added and incubated for 1 hour at room temperature. Plates were washed three times with PBS/0.05% Tween 20 and 100 μl of substrate buffer was added (substrate buffer was prepared shortly before use by adding 1 tablet of 10 mg o-phenylene diamine (OPD) from Sigma and 125 μl 3% H2O2 to 25 ml OPD buffer: 35 mM citric acid, 66 mM Na2HPO4, pH5.6). After 5 to 10 minutes, colour reaction was stopped by adding 50 μl stop buffer (1 M H2SO4) per well. The absorbance at dual wavelengths of 490/655 nm was measured using a Biorad micro plate reader and the results were then analyzed.
For each experiment, controls (containing no drug) and a blank incubation (containing no cells or drugs) were run in parallel. The blank value was subtracted from all control and sample values. For each sample, the value of p53 (in absorbance units) was expressed as the percentage of the value for p53 present in the control. […]

| Compound | IC50 [1] | minimal effective concentration (p53 in A2780 cells) |
| --- | --- | --- |
| OC1CCc2c(Nc3ccc4c(c3)OCCN4CCc3c[nH]c4ccccc34)ccnc21 (centres unmarked) [Compound 1] | 0.427 µM | 0.1 µM |
| O=C1N(CCc2c[nH]c3ccccc23)c2ccc(Nc3ccnc4c3CCC4O)cc2OC1(F)F (centres unmarked) [Compound 10] | – | 0.3 µM |
| Cc1cccc2c(CCN3CC(CO)Oc4cc(Nc5ccncc5)ccc43)c[nH]c12 (centres unmarked) [Compound 17] | – | > 10 µM |
| Cc1cccc2c(CCN3CC(O)COc4cc(Nc5ccnc6c5CCC6O)ccc43)c[nH]c12 (centres unmarked) [Compound 18] | – | > 10 µM |
| Cc1cccc2c(CCN3C[C@@H](CO)Oc4cc(Nc5ccnc6c5CC[C@@H]6O)ccc43)c[nH]c12 [Compound 19] | – | > 10 µM |
| CC1CN(CCc2c[nH]c3ccccc23)c2c(F)cc(Nc3ccnc4c3CCC4O)cc2O1 (centres unmarked) [Compound 32] | – | 3 µM |
| CC1CN(CCc2c[nH]c3ccccc23)c2c(F)cc(Nc3ccncc3)cc2O1 (centres unmarked) [Compound 57] | – | > 10 µM |
| Cc1cccc2c(CCN3CC4(CCN(C)CC4)Oc4cc(Nc5ccncc5)ccc43)c[nH]c12 [Compound 58] | – | > 10 µM |
| O=C1N(CCc2c[nH]c3ccccc23)c2ccc(Nc3ccncc3)cc2OC1(F)F [Compound 60] | – | > 10 µM |
| O=C1N(CCc2c[nH]c3ccccc23)c2ccc(Nc3ccnc(CO)c3)cc2OC1(F)F [Compound 64] | – | 10 µM |
| Cc1cccc2c(CCN3CC4(CCNCC4)Oc4cc(Nc5ccncc5)ccc43)c[nH]c12 [Compound 73] | – | > 10 µM |
| Cc1cccc2c(CCN3CC4(CCNCC4)Oc4cc(Nc5ccnc6c5CCC6O)ccc43)c[nH]c12 (centres unmarked) [Compound 74] | – | > 10 µM |
| CC1CN(CCc2c[nH]c3ccccc23)c2ccc(Nc3ccnc(CO)c3)cc2O1 (centres unmarked) [Compound 79] | – | 10 µM |

Further lines, with some results ahead:

| IC50 [1] | Compound | minimal effective concentration (p53 in A2780 cells) |
| --- | --- | --- |
| ~6.03 µM | O=C1COc2cc(Nc3ccnc4c3CCC4O)ccc2N1CCc1c[nH]c2ccccc12 (centres unmarked) [Compound 2] | 1 µM |
| > 10 µM | c1ccc2c(CCN3CCOc4cc(Nc5ccncc5)ccc43)c[nH]c2c1 [Compound 3] | > 10 µM |
| > 10 µM | O=C1COc2cc(Nc3ccncc3)ccc2N1CCc1c[nH]c2ccccc12 [Compound 4] | > 10 µM |
| 2.57 µM | OC1CCc2c(Nc3ccc4c(c3)OC(c3ccoc3)CN4CCc3c[nH]c4ccccc34)ccnc21 (centres unmarked) [Compound 5] | 0.3 µM |
| 5.5 µM | c1ccc2c(CCN3CCOc4cc(Nc5ccncc5)ccc43)csc2c1 [Compound 6] | > 10 µM |
| 8.51 µM | c1ccc2c(CCN3CC4(CCOCC4)Oc4cc(Nc5ccncc5)ccc43)c[nH]c2c1 [Compound 7] | > 10 µM |
| 1.26 µM | CC(C)N1CCC2(CC1)CN(CCc1c[nH]c3ccccc13)c1ccc(Nc3ccncc3)cc1O2 [Compound 8] | > 10 µM |
| ~5.89 µM | CC1CN(CCc2c[nH]c3ccccc23)c2ccc(Nc3ccncc3)cc2O1 (centres unmarked) [Compound 9] | > 10 µM |
| 2.34 µM | OC1CCc2c(Nc3ccc4c(c3)CCCN4CCc3c[nH]c4ccccc34)ccnc21 (centres unmarked) [Compound 11] | 0.1 µM |
| 3.72 µM | OC1CCc2c(Nc3ccc4c(c3)OCCN4CCc3csc4ccccc34)ccnc21 (centres unmarked) [Compound 12] | 0.3 µM |
| 4.47 µM | OC1CCc2c(Nc3cc(F)c4c(c3)OCCN4CCc3c[nH]c4ccccc34)ccnc21 (centres unmarked) [Compound 13] | 1 µM |
| 2.88 µM | Cc1cccc2c(CCN3CCOc4cc(Nc5ccnc6c5CCC6O)ccc43)c[nH]c12 (centres unmarked) [Compound 14] | 3 µM |
| 8.32 µM | c1ccc2c(CCN3CC4(CCNCC4)Oc4cc(Nc5ccncc5)ccc43)c[nH]c2c1 [Compound 15] | > 10 µM |
| 3.09 µM | CC1Oc2cc(Nc3ccnc4c3CCC4O)ccc2N(CCc2c[nH]c3ccccc23)C1=O (centres unmarked) [Compound 80] | – |

— patent publication US8288377B2, “Inhibitors of the interaction between MDM2 and p53” (Janssen Pharmaceutica N.V., priority 2007, dated 2012)
